Measured values published in patent US20180311276A1, “Method and Apparatus for Treating Oral Disease in Animals” (priority 2015, published 2018).

Tests used:
plaque = test: double-blind, placebo controlled clinical trial in 20 adult dogs, whole mouth plaque scores (Example 1); assay type: in vivo; settings: 28 days
Procedure: First, a double-blind, placebo controlled clinical trial was conducted using 20 adult dogs of mixed breed and weights. The dogs were randomly divided into two groups. […] Group 1 dogs were further divided into two groups of five dogs. Five received molecular iodine [I2] dissolved into 1000 mL water to a final concentration of 0.5 microgram/mL. The second group of five dogs received molecular iodine [I2] dissolved into 1000 mL water to a final concentration of 1.0 microgram/mL. The placebo group of 10 dogs received no iodine. […]
Each dog was weighed, blood drawn for determination of thyroid level and a qualitative assessment was made for halitosis using a 0, 1, 2, 3, 4 and 5 scale with 0 indicating no discernible “doggie breath produced by hydrogen sulfide H2S” and 5 being very noxious, strong odor. […] At the end of the study i.e., 28 days each dog was sedated, breath was evaluated and teeth were stained with disclosing solution that is proven to stain plaque red. The attending veterinarian who measured the initial marginal tooth-gum line measured all the proscribed teeth using the published technique (Scherl D S, Coffman L, et al. Validation of a New Dental Plaque Quantification Method in Dogs. J Vet Dent 24(1); 14-20, 2007). All values from all 20 dogs were recorded and whole mouth scores were calculated.

thyroid level (T4) = thyroid level (T4) in the Example 1 clinical trial; assay type: in vivo, dogs; settings: 0.5 or 1.0 microgram/mL in drinking water, 28 days
Excerpt: Each dog was weighed, blood drawn for determination of thyroid level and a qualitative assessment was made for halitosis using a 0, 1, 2, 3, 4 and 5 scale with 0 indicating no discernible “doggie breath produced by hydrogen sulfide H2S” and 5 being very noxious, strong odor. Dogs were anesthetized, marginal tooth-gum line measurements were taken for proscribed teeth (required for veterinary oral health counsel certification of efficacy at reducing plaque in dogs found at www.VOHC.com) and dog teeth were cleaned to remove all plaque and tarter. All dogs were given either drug or placebo each morning for 28 days. Journal entries were kept for each dog to monitor for compliance, observations regarding dog drinking behavior and comments regarding dog breath/odor. Once each dog drank all the water i.e., 1000 mL the water bowl was filled with fresh water. […] At the end of the study i.e., 28 days each dog was sedated, breath was evaluated and teeth were stained with disclosing solution that is proven to stain plaque red. The attending veterinarian who measured the initial marginal tooth-gum line measured all the proscribed teeth using the published technique (Scherl D S, Coffman L, et al. Validation of a New Dental Plaque Quantification Method in Dogs. J Vet Dent 24(1); 14-20, 2007). All values from all 20 dogs were recorded and whole mouth scores were calculated.

[1] = system: halitosis (volatile sulfur compounds, hydrogen sulfide); test: halitosis secondary end point: Halimeter VSC readings and qualitative odor 0-5 scale (Example 1); assay type: in vivo, dogs
Excerpt: Each dog was weighed, blood drawn for determination of thyroid level and a qualitative assessment was made for halitosis using a 0, 1, 2, 3, 4 and 5 scale with 0 indicating no discernible “doggie breath produced by hydrogen sulfide H2S” and 5 being very noxious, strong odor. Dogs were anesthetized, marginal tooth-gum line measurements were taken for proscribed teeth (required for veterinary oral health counsel certification of efficacy at reducing plaque in dogs found at www.VOHC.com) and dog teeth were cleaned to remove all plaque and tarter. All dogs were given either drug or placebo each morning for 28 days. Journal entries were kept for each dog to monitor for compliance, observations regarding dog drinking behavior and comments regarding dog breath/odor. Once each dog drank all the water i.e., 1000 mL the water bowl was filled with fresh water. The following day all the remaining water was discarded and the clinical trial sample was added to the water bowl. At the end of the study i.e., 28 days each dog was sedated, breath was evaluated and teeth were stained with disclosing solution that is proven to stain plaque red. The attending veterinarian who measured the initial marginal tooth-gum line measured all the proscribed teeth using the published technique (Scherl D S, Coffman L, et al. Validation of a New Dental Plaque Quantification Method in Dogs. J Vet Dent 24(1); 14-20, 2007). All values from all 20 dogs were recorded and whole mouth scores were calculated.
The halitosis secondary end point was more complicated since the attempt was made to use an Interscan Corporation Halimeter® that quantitatively measures volatile sulfur compounds (VSC) in the oral cavity. The Halimeter was designed for use by dentists and humans. One of the requirements to obtain reliable readings is for the conscious human subject to blow into a straw connected into the Halimeter. The problem encountered with dogs while under anesthesia is obtaining a valid reading since they are unable to “blow” into the straw. Early dog readings were erratic and turned out to be unreliable. […]

[2] = system: oral bacteria responsible for plaque formation; test: kill of oral bacteria responsible for plaque formation; assay type: cell-based; settings: 2 micrograms/mL
Excerpt: (§1) The inventor evaluated a variety elemental iodine concentrations e.g., 0.5, 1.0, 2.0, 3, 5, 10, 15 and 20 micrograms/mL and discovered that dogs preferred drinking water with elemental iodine below 2 micrograms/mL. We evaluated the ability of elemental iodine to kill oral bacteria at a concentration of 2 micrograms/mL responsible for plaque formation and discovered that elemental iodine was effective at this dose i.e., microbial kill >3 logs/min. We evaluated lower concentrations of elemental iodine e.g., 0.05, 0.1 and 0.5 micrograms/mL. […] We hypothesized that molecular iodine concentrations below 0.5 micrograms/mL may not be not effective in killing oral bacteria responsible for plaque formation. We confirmed this assumption by performing microbial analysis. The inventor sent samples of two part preparations e.g., 1 vial with water and a second vial with iodine in 100% ethyl alcohol. These were combined before analysis so that the final concentrations were 0.05, 0.1, 0.5, 1.0, 2.0 and 5.0 micrograms/mL. The test organism was a known plaque-producing bacterium i.e., Neisseria spp. A contract research laboratory in Texas i.e., MicroChem Laboratories performed the use dilution experiments.

Neisseria spp. = test: use dilution experiments (MicroChem Laboratories); assay type: cell-based; settings: for reduction in microbial concentration / kill: 1 minute time point
Excerpt: as §1

[3] = system: plaque formation on teeth; test: two double-blind, placebo-controlled clinical trials at a humane shelter, plaque prevention; assay type: in vivo, dogs
Procedure: (§2) Plaque formation leads to gingivitis and periodontal disease and often progresses to systemic disease and death in dogs. Clinical trial 1 was conducted at a humane shelter with all dogs enclosed in kennels using a manually added drug vs. placebo. Subsequently, Clinical Trial 2 was conducted at a humane shelter with all dogs enclosed in kennels but in this case the iodine vs placebo was administered via an automated system.
We conducted two double-blind, placebo-controlled clinical trials using both 0.5 and 1.0 micrograms elemental iodine in water.

thyroid hormone levels = thyroid hormone levels in the two shelter clinical trials; assay type: in vivo, dogs; settings: iodine added to dog drinking water
Procedure: as §2
Furthermore, neither dog weight or age affected the plaque prevention effect. Finally, the iodine added to dog drinking water had no effect on dog thyroid hormone levels.

[4] = saturation of absolute alcohol with molecular iodine; assay type: physicochemical
Excerpt: One embodiment of the present invention features a carrier liquid ethanol. The ethanol is preferably devoid of water, as in absolute alcohol. As used herein, the term “absolute alcohol” refers to alcohol with no or limited water content as such term is used in a commercial context. One formulation molecular iodine having a concentration in absolute alcohol in the range of 0.1 to 1.0 Gm molecular iodine in 13 milliliters of absolute alcohol. Molecular iodine saturates absolute alcohol at a concentration of 1 Gm per 13 milliliters of absolute alcohol. A further embodiment of the present formulation features a molecular sieve particle of between 2 and 4 A which captures and adsorbs water.

II [molecular iodine]
whole mouth plaque scores from Day 0 to Day 28, Treated dogs compared to Placebo dogs (plaque; 0.5 or 1.0 microgram/mL in 1000 mL drinking water, once daily): statistically significant reduction | mean plaque score, dogs receiving 0.5 microgram/mL versus 1.0 micrograms/mL (plaque; drinking water): no difference | T4 levels after treatment (thyroid level (T4)): remained within normal range | Halimeter VSC levels at the conclusion of the clinical trial ([1]; 0-5 scale, 3 dogs of the iodine group, initial levels 4-5, not statistically significant): 0-1 | qualitative odor, final ([1]; 0-5 scale, 5 iodine-treated dogs, initial smell 3-5): 0-1 | number of iodine-treated dogs with reduced oral smell or doggie breath or VSC/H2S ([1]; of 10 iodine-treated dogs, 28 days): 8 | microbial kill [2]: > 3 logs/min | antimicrobial efficacy (Neisseria spp.; 0.05 micrograms/mL): no antimicrobial efficacy | antimicrobial efficacy (Neisseria spp.; 0.1 micrograms/mL): no antimicrobial efficacy | reduction in microbial concentration (Neisseria spp.; 0.5 microgram/mL): 100 fold | reduction in microbial concentration (Neisseria spp.; 1.0 microgram/mL): 1000 fold | kill (Neisseria spp.; 2.0 microgram/mL): > 4 logs | kill (Neisseria spp.; 5.0 microgram/mL): > 4 logs | killing oral bacteria (Neisseria spp.; concentrations below 0.5 micrograms/mL, independent use dilution experiments): not effective | plaque prevention ([3]; both 0.5 and 1.0 micrograms/mL water): proven effective | prevention of plaque formation, 0.5 versus 1.0 micrograms/mL ([3]; dog drinking water, all dogs regardless of size or age): statistically significantly identical | effect on dog thyroid hormone levels (thyroid hormone levels): no effect | concentration at which molecular iodine saturates absolute alcohol [4]: 1 Gm per 13 milliliters of absolute alcohol
